This test concerns HCT116 MTAP-deleted cell lines. Put plainly: Cell viability assay (CellTiter-Glo, 7 days), HCT116 MTAP-deleted. Type of test: cell-based. The settings on record: Homo sapiens, HCT-116. The method, boiled down:
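First, compounds are serially diluted in DMSO and dispensed into plates, which are frozen until seeding. Next, cells are added and incubated 7 days at 37 °C, 5% CO2, 90% humidity. Finally, CellTiter-Glo reagent is added and luminescence is measured to derive CC50.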

[1] abbreviates: cell viability assay, HCT116 MTAP-deleted, class symbols, read-out: CC50.
Where [2] appears, read: cell viability, HCT116 MTAP-deleted, class symbols, read-out: CC50.

Read-outs that look alike come from different tables or passages of the source.

Broadly, the CC50 is the concentration at which the toxic effect on the cells reaches its halfway point. As for `CC1(C)CN(C(=O)c2cc3c(cc2F)nc(N)c2cncn23)[C@H]2c3ccc(C(F)(F)F)cc3C[C@H]2O1` [Ff-380, (4-amino-7-fluoroimidazo[1,5-a]quinoxalin-8-yl)((4aS,9aR)-2,2-dimethyl-7-(trifluoromethyl)-2,3,9,9a-tetrahydroindeno[2,1-b][1,4]oxazin-4(4aH)-yl)methanone], under setting [1], the CC50 is < 100 nM. In the case of `Nc1nc2cc(F)c(C(=O)N3CC4(CCC3c3ccc(C(F)(F)F)cn3)CC4)cc2n2cncc12` (centres unmarked) [Ff-149, (4-amino-7-fluoroimidazo[1,5-a]quinoxalin-8-yl)(6-(5-(trifluoromethyl)pyridin-2-yl)-5-azaspiro[2.5]octan-5-yl)methanone], the CC50 was < 100 nM. Consider `C[C@@H]1OCCN(C(=O)c2cc3c(cc2F)nc(N)c2cncn23)[C@H]1c1ccc(C(F)(F)F)cn1` [Ff-132, (4-amino-7-fluoroimidazo[1,5-a]quinoxalin-8-yl)((2S,3S)-2-methyl-3-(5-(trifluoromethyl)pyridin-2-yl)morpholino)methanone], for which the CC50 under setting [2] was < 100 nM.

As to `CN(C(=O)c1ccc2nc(N)c3cncn3c2c1)[C@@H]1COc2cc(OC(F)(F)F)ccc21` [Ff-563, (S)-4-amino-N-methyl-N-(6-(trifluoromethoxy)-2,3-dihydrobenzofuran-3-yl)imidazo[1,5-a]quinoxaline-8-carboxamide], the CC50 under setting [1] was < 100 nM. Regarding `Nc1nc2cc(F)c(C(=O)N3CCC[C@@H]4OCc5cc(-c6ccn(C(F)F)n6)ccc5[C@@H]43)cc2n2cncc12` (racemic) [Ff-298, Rac-(4-amino-7-fluoroimidazo[1,5-a]quinoxalin-8-yl)((4aS,10bS)-8-(1-(difluoromethyl)-1H-pyrazol-3-yl)-2,3,4,4a,6,10b-hexahydro-1H-isochromeno[4,3-b]pyridin-1-yl)methanone], the CC50 under setting [2] is < 100 nM. Regarding `CCN(C(=O)c1cc2c(cn1)nc(N)c1cncn12)[C@@H]1COc2cc(C(F)(F)F)ccc21` [Ff-604, (S)-4-amino-N-ethyl-N-(6-(trifluoromethyl)-2,3-dihydrobenzofuran-3-yl)imidazo[1,5-a]pyrido[3,4-e]pyrazine-8-carboxamide], the CC50 under setting [1] is < 100 nM.

As to `Cc1ncc2c(N)nc3ccc(C(=O)N4CCC5(CC4)COc4ccccc45)cc3n12` [Ff-61, (4-amino-1-methylimidazo[1,5-a]quinoxalin-8-yl)(2H-spiro[benzofuran-3,4′-piperidin]-1′-yl)methanone], under setting [2], the CC50 is > 1000 nM. Still for that read-out and setting: the value for `C[C@@H]1CN(C(=O)c2cc3c(cc2F)nc(N)c2cncn23)[C@H]2c3ccccc3C[C@H]2O1` (racemic) [Ff-56, Rac-(4-amino-7-fluoroimidazo[1,5-a]quinoxalin-8-yl)((2R,4aS,9aR)-2-methyl-2,3,9,9a-tetrahydroindeno[2,1-b][1,4]oxazin-4(4aH)-yl)methanone] was 100 to 1000 nM. Still for that read-out and setting: with `COc1cc(C(F)(F)F)ccc1CN(C)C(=O)c1ccc2nc(N)c3cncn3c2c1` [Ff-125, 4-amino-N-(2-methoxy-4-(trifluoromethyl)benzyl)-N-methylimidazo[1,5-a]quinoxaline-8-carboxamide] the figure was 100 to 1000 nM; with `C[C@H]1CN(C(=O)c2cc3c(cc2F)nc(N)c2cncn23)[C@H]2c3ccc(-c4cnn(C(F)F)c4)c(F)c3C[C@H]2O1` [Ff-200, (4-amino-7-fluoroimidazo[1,5-a]quinoxalin-8-yl)((2S,4aS,9aR)-7-(1-(difluoromethyl)-1H-pyrazol-4-yl)-8-fluoro-2-methyl-2,3,9,9a-tetrahydroindeno[2,1-b][1,4]oxazin-4(4aH)-yl)methanone], < 100 nM; with `Cc1ncn2c1c(N)nc1cnc(C(=O)N3CCO[C@@H]4Cc5cc(OC(F)(F)F)c(F)cc5[C@@H]43)cc12` [Ff-180, (4-amino-3-methylimidazo[1,5-a]pyrido[3,4-e]pyrazin-8-yl)((4aS,9aR)-6-fluoro-7-(trifluoromethoxy)-2,3,9,9a-tetrahydroindeno[2,1-b][1,4]oxazin-4(4aH)-yl)methanone], < 100 nM. `CCN(C(=O)c1cc2c(cc1F)nc(N)c1cncn12)[C@@H](C)c1ccc(C(F)(F)F)cn1` [Ff-543, (S)-4-amino-N-ethyl-7-fluoro-N-(1-(5-(trifluoromethyl)pyridin-2-yl)ethyl)imidazo[1,5-a]quinoxaline-8-carboxamide]: the CC50 under setting [1] was < 100 nM. As for `C[C@H]1CN(C(=O)c2cc3c(cn2)nc(N)c2cncn23)[C@H]2c3ccc(OC(F)(F)F)cc3C[C@H]2O1` (single isomer, unassigned) [Ff-186], the CC50 under setting [2] was < 100 nM. On to `[2H]C([2H])([2H])[C@H]1CN(C(=O)c2cc3c(cc2F)nc(N)c2cncn23)[C@H]2c3ccc(C(F)(F)F)cc3C[C@H]2O1` (single isomer, unassigned) [Ff-639], for which, under setting [1], the CC50 was < 100 nM. With `CN(C(=O)c1cc2c(cc1F)nc(N)c1cncn12)[C@@H]1COc2cc([C@@H]3C[C@H]3C#N)ccc21` (single isomer, unassigned) [Ff-480], the CC50 under setting [1] was < 100 nM. For `Cc1ncc2c(N)nc3ccc(C(=O)N4C[C@@H](C)O[C@@H]5Cc6cc(C(F)(F)F)ccc6[C@@H]54)cc3n12` [Ff-631, (4-amino-1-methylimidazo[1,5-a]quinoxalin-8-yl)((2R,4aS,9aR)-2-methyl-7-(trifluoromethyl)-2,3,9,9a-tetrahydroindeno[2,1-b][1,4]oxazin-4(4aH)-yl)methanone], the CC50 under setting [1] lay in the range of 100 to 1000 nM. On the same count and under the same terms, with `Cc1ncn2c1c(N)nc1cnc(C(=O)N3CC(C)(C)CC4Oc5cc(OC(F)(F)F)ccc5C43)cc12` (centres unmarked) [Fg-27, (4-amino-3-methylimidazo[1,5-a]pyrido[3,4-e]pyrazin-8-yl)(3,3-dimethyl-7-(trifluoromethoxy)-3,4,4a,9b-tetrahydrobenzofuro[3,2-b]pyridin-1(2H)-yl)methanone] the figure was 100 to 1000 nM; with `CC(C)c1ccc2c(c1)OC[C@H]2N(C)C(=O)c1cc2c(cc1F)nc(N)c1cncn12` [Ff-479, (S)-4-amino-7-fluoro-N-(6-isopropyl-2,3-dihydrobenzofuran-3-yl)-N-methylimidazo[1,5-a]quinoxaline-8-carboxamide], < 100 nM.

With `Cc1ncn2c1c(N)nc1ccc(C(=O)N3C[C@@H](C)O[C@@H]4Cc5cc(OC(F)(F)F)ccc5[C@@H]43)cc12` (single isomer, unassigned) [Fg-22], the CC50 under setting [1] is < 100 nM. Regarding `CCN(Cc1ccc(F)cc1Cl)C(=O)c1ccc2nc(N)c3cncn3c2c1` [Ff-71, 4-amino-N-(2-chloro-4-fluorobenzyl)-N-ethylimidazo[1,5-a]quinoxaline-8-carboxamide], the CC50 under setting [2] lay in the range of 100 to 1000 nM. For `Cc1ncn2c1c(N)nc1cnc(C(=O)N3CCC[C@@H]4Oc5c(ccc(OC(F)(F)F)c5F)[C@@H]43)cc12` [Fg-62, (4-amino-3-methylimidazo[1,5-a]pyrido[3,4-e]pyrazin-8-yl)((4aS,9bS)-6-fluoro-7-(trifluoromethoxy)-3,4,4a,9b-tetrahydrobenzofuro[3,2-b]pyridin-1(2H)-yl)methanone], under setting [1], the CC50 was < 100 nM.

For the molecule `C[C@H]1CN(C(=O)c2cc3c(cc2F)nc(N)c2cncn23)[C@H]2c3cc(F)c(OC(F)(F)F)cc3C[C@H]2O1` (single isomer, unassigned) [Ff-198], under setting [2], the CC50 was < 100 nM. As for `CC(C)N(Cc1ccc(F)cc1Cl)C(=O)c1ccc2nc(N)c3cncn3c2c1` [Ff-72, 4-amino-N-(2-chloro-4-fluorobenzyl)-N-isopropylimidazo[1,5-a]quinoxaline-8-carboxamide], under setting [2], the 50% cytotoxic concentration (CC50) lay in the range of 100 to 1000 nM.

Values taken from patent US12448388B2, “PRMT5 inhibitors and uses thereof” (Gilead Sciences, Inc., priority 2023, dated 2025).
